Source: patent US20240350649A1, “TREATMENT AND DIAGNOSIS OF IMMUNE DISORDERS RELATING TO ABERRANT IMMUNE CELLS” (Octagon Therapeutics, Inc., priority 2021, published 2024)
“Also recorded” adds a separate entry of the source.

Legend:
Format in all cases: cell-based
CD3+ primary T cells = test: BrdU incorporation proliferation assay, primary T cells stimulated with donor plasma; details: OTG177 up to 1000 μM, 72 hours
Experimental: (§1) 0.5×10^6 primary cells (purified CD19+ primary B cells, Precision for Medicine, MD) or 0.5×10^6 CD3+ primary T cells (Precision for Medicine, MD) from a healthy donor were assayed for their rate of proliferation via the BrdU incorporation method (Roche kit 11647229001), following vendor protocols. In brief, BrdU was added to cell culture for 2 hours-12 hours. The cells were dried with hot air ventilation and fixed with saline and ethanol. The incorporated BrdU was measured with an ELISA assay with an anti BrdU antibody (Roche).
(§2) A representative compound according to the disclosure, OTG177 (FIG. 4), was constructed according to the synthetic scheme shown in FIGS. 2A and 2B using the Bait CD10 substrate succinyl-Ala-Ala-Phe- and an antiproliferative Payload RMP. This compound was tested in this proliferation assay as follows: negative selected lymphocytes (either B or T cells) were incubated with different concentration of OTG177 up to 1000 μM with 10% plasma from either a healthy donor or a flaring Pemphigus Vulgaris donor. All conditions had 30 units/ml of heparin to prevent clotting of the plasma. Cells were incubated for 72 hours at 37° C. 5% CO2 and a BrdU incorporation assay was performed with kit (Roche) as described before.

[1] = tested on: PBMC (granulocytes, monocytes, lymphocytes); test: Mixed-cell assay, PBMC composition by flow cytometry (SSC vs CD45); details: up to 50 μM; healthy, PV or SLE donor plasma; FIG. 5B
Experimental: (§3) 0.5×10^6 primary cells (purified CD19+ primary B cells (Precision for Medicine, MD) or 0.5×10^6 CD3+ primary T cells (Precision for Medicine, MD Primary PBMCs (Precision for Medicine, MD) from a healthy donor were stimulated with 10% v/v plasma from either a healthy donor, a pemphigus vulgaris (PV) donor, or a systemic lupus erythematosus (SLE) donor for 24 hours at 37 C, 5% CO2. Compound OTG177 was added at 1 μM, 10 μM and 50 μM concentrations with DMSO as a mock treatment. After 24 hours-72 hours of treatment, cells were labeled with anti-CD45 antibody (5 μl/million cells in 100 μl volume, clone HI30, BUV395, Biolegend, CA), anti-CD19 antibody (5 μl per million cells in 100 μl volume, Clone HIB, PE-CF594, Biolegend, CA) anti-CD3 antibody (5 μl/million cells in 100 μl volume, clone SK7, FITC, Biolegend, CA). Propidium (1 μg/ml) was used to select cells based on their viability. The cells were analyzed by multi-colored flow cytometry using an Attune NxT Flow Cytometer (ThermoFisher).
Overall peripheral blood mononuclear cell (PBMC) composition was evaluated by gating side scattering (SSC) versus CD45, a pan leukocyte marker (FIG. 5A). This gating strategy can differentiate different leukocyte populations based on their scattering profiles.

[2] = tested on: primary CD3+ T lymphocytes; test: Mixed-cell assay, T lymphocytes in mixed PBMC population by flow cytometry; details: up to 50 μM; healthy, PV and SLE plasma; FIG. 5F
Experimental: as §3
(§4) In addition, the effect of OTG177 on B and T lymphocytes was examined by first gating all PBMCs by forward scattering (FSC) versus side scattering (SSC) and isolating the low SSC and high FSC population (FIG. 5C), gating on this selection, the populations of segregated based on their staining to CD19 (red) and CD3 antibodies (green) (FIG. 5D).

[3] = tested on: primary CD19+ B lymphocytes; test: Mixed-cell assay, B lymphocytes in mixed PBMC population by flow cytometry; details: FIG. 5E; for suppression of B cell proliferation in mixed PBMC population: 1 μM to 50 μM range
Experimental: as §3, §4

CD19+ primary B cells = test: BrdU incorporation proliferation assay, primary B cells stimulated with donor plasma; details: OTG177 up to 1000 μM, 72 hours
Experimental: as §1, §2

C[C@H](NC(=O)CCC(=O)O)C(=O)N[C@@H](C)C(=O)N[C@@H](Cc1ccccc1)C(=O)Nc1ccc2c(c1)COP(=O)(OC[C@H]1O[C@@H](n3cnc(C(N)=O)n3)[C@H](O)[C@@H]1O)O2 (stereo partly drawn) [OTG177, 4-[[(1S)-2-[[(1S)-2-[[(1S)-1-benzyl-2-[[2-[[(2R,3S,4R,5R)-5-(3-carbamoyl-1,2,4-triazol-1-yl)-3,4-dihydroxy-tetrahydrofuran-2-yl]methoxy]-2-oxo-4H-1,3,2benzodioxaphosphinin-6-yl]amino]-2-oxo-ethyl]amino]-1-methyl-2-oxo-ethyl]amino]-1-methyl-2-oxo-ethyl]amino]-4-oxo-butanoic Acid]
antiproliferative activity in T cells (CD3+ primary T cells; 10% flaring pemphigus vulgaris donor's plasma, FIG. 4E): did not exhibit antiproliferative activity | antiproliferative activity in T cells (CD3+ primary T cells; 10% healthy donor's plasma, FIG. 4D): did not exhibit antiproliferative activity | effect on PBMC composition (% granulocytes, monocytes, lymphocytes) [1]: not affected; also recorded: does not have obvious effects | effect on T cells in mixed PBMC population [2]: not affected; also recorded: no obvious effect | suppression of B cell proliferation in mixed PBMC population ([3]; stimulated with PV plasma): dose-dependent suppression; also recorded: suppressive effect | suppression of B cell proliferation in mixed PBMC population ([3]; stimulated with SLE plasma): dose-dependent suppression; also recorded: suppressive effect | effect on B cells in mixed PBMC population ([3]; stimulated with healthy plasma, 1, 10, 50 μM): not affected | antiproliferative activity in B cells (CD19+ primary B cells; 10% flaring pemphigus vulgaris donor's plasma, FIG. 4C): strong antiproliferative activity | antiproliferative activity in B cells (CD19+ primary B cells; 10% healthy donor's plasma, FIG. 4B): did not exhibit detectable antiproliferative activity
